Measurements taken from ChEMBL document CHEMBL1149819, “Synthesis and in vivo anti-mutagenic activity of novel melatonin derivatives” (2008).

Legend:
Settings in all cases: route intragastric
Mus musculus [1] = assay: Antimutagenic activity in Albino mouse kidney assessed as DNA level per gram of tissue at 14.16 mg/kg administered intragastrically for 1 week; assay type: functional
Mus musculus [2] = assay: Antimutagenic activity in Albino mouse kidney assessed as RNA level per gram of tissue at 14.16 mg/kg administered intragastrically for 1 week; assay type: functional
Mus musculus [3] = assay: Antimutagenic activity in mouse brain assessed as peroxidase activity per microgram of tissue at 14.16 mg/kg administered intragastrically for 1 week; assay type: functional
Mus musculus [4] = assay: Antimutagenic activity against cyclophosphamide-induced mutagenicity in mouse testes assessed as protein level per gram of tissue at 14.16 mg/kg administered intragastrically for 1 week; assay type: functional, Testis
Mus musculus [5] = assay: Antimutagenic activity in Albino mouse brain assessed as DNA level per gram of tissue at 14.16 mg/kg administered intragastrically for 1 week; assay type: functional
Mus musculus [6] = assay: Antimutagenic activity against cyclophosphamide-induced mutagenicity in Albino mouse testes assessed as DNA level per gram of tissue at 14.16 mg/kg administered intragastrically for 1 week; assay type: functional, Testis
Mus musculus [7] = assay: Antimutagenic activity in Albino mouse brain assessed as RNA level per gram of tissue at 14.16 mg/kg administered intragastrically for 1 week; assay type: functional
Mus musculus [8] = assay: Antimutagenic activity in mouse liver assessed as protein level per gram of tissue at 14.16 mg/kg administered intragastrically for 1 week; assay type: functional
Mus musculus [9] = assay: Antimutagenic activity in Albino mouse liver assessed as DNA level per gram of tissue at 14.16 mg/kg administered intragastrically for 1 week; assay type: functional
Mus musculus [10] = assay: Antimutagenic activity against cyclophosphamide-induced mutagenicity in Albino mouse testes assessed as RNA level per gram of tissue at 14.16 mg/kg administered intragastrically for 1 week; assay type: functional, Testis
Mus musculus [11] = assay: Antimutagenic activity against cyclophosphamide-induced mutagenicity in mouse brain assessed as cholinesterase activity per microgram of tissue at 14.16 mg/kg administered intragastrically for 1 week; assay type: functional
Mus musculus [12] = assay: Antimutagenic activity against cyclophosphamide-induced mutagenicity in Albino mouse brain assessed as RNA level per gram of tissue at 14.16 mg/kg administered intragastrically for 1 week; assay type: functional
Mus musculus [13] = assay: Antimutagenic activity against cyclophosphamide-induced mutagenicity in mouse kidney assessed as protein level per gram of tissue at 14.16 mg/kg administered intragastrically for 1 week; assay type: functional
Mus musculus [14] = assay: Antimutagenic activity in mouse brain assessed as cholinesterase activity per microgram of tissue at 14.16 mg/kg administered intragastrically for 1 week; assay type: functional
Mus musculus [15] = assay: Antimutagenic activity in mouse kidney assessed as protein level per gram of tissue at 14.16 mg/kg administered intragastrically for 1 week; assay type: functional
Mus musculus [16] = assay: Antimutagenic activity in Albino mouse testes assessed as RNA level per gram of tissue at 14.16 mg/kg administered intragastrically for 1 week; assay type: functional, Testis
Mus musculus [17] = assay: Antimutagenic activity in Albino mouse testes assessed as DNA level per gram of tissue at 14.16 mg/kg administered intragastrically for 1 week; assay type: functional, Testis
Mus musculus [18] = assay: Antimutagenic activity against cyclophosphamide-induced mutagenicity in Albino mouse brain assessed as DNA level per gram of tissue at 14.16 mg/kg administered intragastrically for 1 week; assay type: functional
Mus musculus [19] = assay: Antimutagenic activity against cyclophosphamide-induced mutagenicity in Albino mouse kidney assessed as RNA level per gram of tissue at 14.16 mg/kg administered intragastrically for 1 week; assay type: functional
Mus musculus [20] = assay: Antimutagenic activity against cyclophosphamide-induced mutagenicity in Albino mouse kidney assessed as DNA level per gram of tissue at 14.16 mg/kg administered intragastrically for 1 week; assay type: functional
Mus musculus [21] = assay: Antimutagenic activity against cyclophosphamide-induced mutagenicity in Albino mouse liver assessed as DNA level per gram of tissue at 14.16 mg/kg administered intragastrically for 1 week; assay type: functional
Mus musculus [22] = assay: Antimutagenic activity against cyclophosphamide-induced mutagenicity in mouse brain assessed as protein level per gram of tissue at 14.16 mg/kg administered intragastrically for 1 week; assay type: functional
Mus musculus [23] = assay: Antimutagenic activity in Albino mouse liver assessed as RNA level per gram of tissue at 14.16 mg/kg administered intragastrically for 1 week; assay type: functional
Mus musculus [24] = assay: Inhibition of cyclophosphamide-induced increase in micronuclei/polychromatic erythrocytes count in mouse at 18.38 mg/kg administered intragastrically for 1 week by micronuclei assay; assay type: functional; parameters: scale not given: the % may be the effect or the level left
Mus musculus [25] = assay: Antimutagenic activity against cyclophosphamide-induced mutagenicity in mouse brain assessed as peroxidase activity per microgram of tissue at 14.16 mg/kg administered intragastrically for 1 week; assay type: functional
Mus musculus [26] = assay: Antimutagenic activity in mouse brain assessed as protein level per gram of tissue at 14.16 mg/kg administered intragastrically for 1 week; assay type: functional
Mus musculus [27] = assay: Antimutagenic activity against cyclophosphamide-induced mutagenicity in Albino mouse liver assessed as RNA level per gram of tissue at 14.16 mg/kg administered intragastrically for 1 week; assay type: functional
Mus musculus [28] = assay: Antimutagenic activity against cyclophosphamide-induced mutagenicity in mouse brain assessed as cholinesterase activity per microgram of tissue at 10 mg/kg administered intragastrically for 1 week; assay type: functional
Mus musculus [29] = assay: Antimutagenic activity in Albino mouse testes assessed as RNA level per gram of tissue at 10 mg/kg administered intragastrically for 1 week; assay type: functional, Testis
Mus musculus [30] = assay: Antimutagenic activity in mouse liver assessed as protein level per gram of tissue at 10 mg/kg administered intragastrically for 1 week; assay type: functional
Mus musculus [31] = assay: Antimutagenic activity in mouse brain assessed as protein level per gram of tissue at 10 mg/kg administered intragastrically for 1 week; assay type: functional
Mus musculus [32] = assay: Antimutagenic activity against cyclophosphamide-induced mutagenicity in Albino mouse brain assessed as RNA level per gram of tissue at 10 mg/kg administered intragastrically for 1 week; assay type: functional
Mus musculus [33] = assay: Antimutagenic activity in Albino mouse kidney assessed as RNA level per gram of tissue at 10 mg/kg administered intragastrically for 1 week; assay type: functional
Mus musculus [34] = assay: Antimutagenic activity in Albino mouse testes assessed as DNA level per gram of tissue at 10 mg/kg administered intragastrically for 1 week; assay type: functional, Testis
Mus musculus [35] = assay: Antimutagenic activity in Albino mouse brain assessed as DNA level per gram of tissue at 10 mg/kg administered intragastrically for 1 week; assay type: functional
Mus musculus [36] = assay: Antimutagenic activity in mouse brain assessed as cholinesterase activity per microgram of tissue at 10 mg/kg administered intragastrically for 1 week; assay type: functional
Mus musculus [37] = assay: Antimutagenic activity against cyclophosphamide-induced mutagenicity in Albino mouse brain assessed as DNA level per gram of tissue at 10 mg/kg administered intragastrically for 1 week; assay type: functional
Mus musculus [38] = assay: Antimutagenic activity against cyclophosphamide-induced mutagenicity in Albino mouse liver assessed as RNA level per gram of tissue at 10 mg/kg administered intragastrically for 1 week; assay type: functional
Mus musculus [39] = assay: Antimutagenic activity in mouse brain assessed as peroxidase activity per microgram of tissue at 10 mg/kg administered intragastrically for 1 week; assay type: functional
Mus musculus [40] = assay: Antimutagenic activity against cyclophosphamide-induced mutagenicity in mouse testes assessed as protein level per gram of tissue at 10 mg/kg administered intragastrically for 1 week; assay type: functional, Testis
Mus musculus [41] = assay: Antimutagenic activity in Albino mouse liver assessed as RNA level per gram of tissue at 10 mg/kg administered intragastrically for 1 week; assay type: functional
Mus musculus [42] = assay: Antimutagenic activity in Albino mouse liver assessed as DNA level per gram of tissue at 10 mg/kg administered intragastrically for 1 week; assay type: functional
Mus musculus [43] = assay: Antimutagenic activity against cyclophosphamide-induced mutagenicity in mouse brain assessed as peroxidase activity per microgram of tissue at 10 mg/kg administered intragastrically for 1 week; assay type: functional
Mus musculus [44] = assay: Antimutagenic activity in Albino mouse kidney assessed as DNA level per gram of tissue at 10 mg/kg administered intragastrically for 1 week; assay type: functional
Mus musculus [45] = assay: Antimutagenic activity against cyclophosphamide-induced mutagenicity in mouse liver assessed as protein level per gram of tissue at 10 mg/kg administered intragastrically for 1 week; assay type: functional
Mus musculus [46] = assay: Antimutagenic activity against cyclophosphamide-induced mutagenicity in Albino mouse kidney assessed as RNA level per gram of tissue at 10 mg/kg administered intragastrically for 1 week; assay type: functional
Mus musculus [47] = assay: Antimutagenic activity against cyclophosphamide-induced mutagenicity in mouse kidney assessed as protein level per gram of tissue at 10 mg/kg administered intragastrically for 1 week; assay type: functional
Mus musculus [48] = assay: Antimutagenic activity against cyclophosphamide-induced mutagenicity in Albino mouse testes assessed as RNA level per gram of tissue at 10 mg/kg administered intragastrically for 1 week; assay type: functional, Testis
Mus musculus [49] = assay: Antimutagenic activity in Albino mouse brain assessed as RNA level per gram of tissue at 10 mg/kg administered intragastrically for 1 week; assay type: functional
Mus musculus [50] = assay: Antimutagenic activity against cyclophosphamide-induced mutagenicity in Albino mouse kidney assessed as DNA level per gram of tissue at 10 mg/kg administered intragastrically for 1 week; assay type: functional
Mus musculus [51] = assay: Antimutagenic activity against cyclophosphamide-induced mutagenicity in mouse brain assessed as protein level per gram of tissue at 10 mg/kg administered intragastrically for 1 week; assay type: functional
Mus musculus [52] = assay: Antimutagenic activity in mouse kidney assessed as protein level per gram of tissue at 10 mg/kg administered intragastrically for 1 week; assay type: functional
Mus musculus [53] = assay: Antimutagenic activity against cyclophosphamide-induced mutagenicity in Albino mouse testes assessed as DNA level per gram of tissue at 10 mg/kg administered intragastrically for 1 week; assay type: functional, Testis
Mus musculus [54] = assay: Inhibition of cyclophosphamide-induced increase in micronuclei/polychromatic erythrocytes count in mouse at 10 mg/kg administered intragastrically for 1 week by micronuclei assay; assay type: functional; parameters: scale not given: the % may be the effect or the level left
Mus musculus [55] = assay: Antimutagenic against cyclophosphamide-induced mutagenicity in Albino mouse liver assessed as DNA level per gram of tissue at 10 mg/kg administered intragastrically for 1 week; assay type: functional

SMILES: COc1ccc2c(c1)c(CCNC(C)=O)c1sc(CC#N)nn12
- Activity (Mus musculus [1]): 0.28 mg
- Activity (Mus musculus [2]): 0.23 mg
- Activity (Mus musculus [3]): 1.06 U/min
- Activity (Mus musculus [4]): 3.49 g
- Activity (Mus musculus [5]): 0.33 mg
- Activity (Mus musculus [6]): 0.28 mg
- Activity (Mus musculus [7]): 0.19 mg
- Activity (Mus musculus [8]): 9.95 g
- Activity (Mus musculus [9]): 0.27 mg
- Activity (Mus musculus [10]): 0.19 mg
- Activity (Mus musculus [11]): 2.73 U
- Activity (Mus musculus [12]): 0.16 mg
- Activity (Mus musculus [13]): 4.94 g
- Activity (Mus musculus [14]): 3.3 U
- Activity (Mus musculus [15]): 7.87 g
- Activity (Mus musculus [16]): 0.21 mg
- Activity (Mus musculus [17]): 0.32 mg
- Activity (Mus musculus [18]): 0.21 mg
- Activity (Mus musculus [19]): 0.22 mg
- Activity (Mus musculus [20]): 0.35 mg
- Activity (Mus musculus [21]): 0.25 mg
- Activity (Mus musculus [22]): 2.71 g
- Activity (Mus musculus [23]): 0.3 mg
- Activity (Mus musculus [24]): 28%
- Activity (Mus musculus [25]): 1.24 U/min
- Activity (Mus musculus [26]): 2.98 g
- Activity (Mus musculus [27]): 0.34 mg

SMILES: COc1ccc2[nH]cc(CCNC(C)=O)c2c1 [MELATONIN]
- Activity (Mus musculus [28]): 2.63 U
- Activity (Mus musculus [29]): 0.34 mg
- Activity (Mus musculus [30]): 8.42 g
- Activity (Mus musculus [31]): 2.48 g
- Activity (Mus musculus [32]): 0.15 mg
- Activity (Mus musculus [33]): 0.38 mg
- Activity (Mus musculus [34]): 0.26 mg
- Activity (Mus musculus [35]): 0.32 mg
- Activity (Mus musculus [36]): 3.13 U
- Activity (Mus musculus [37]): 0.21 mg
- Activity (Mus musculus [38]): 0.28 mg
- Activity (Mus musculus [39]): 3.38 U/min
- Activity (Mus musculus [40]): 2.96 g
- Activity (Mus musculus [41]): 0.44 mg
- Activity (Mus musculus [42]): 0.26 mg
- Activity (Mus musculus [43]): 2.54 U/min
- Activity (Mus musculus [44]): 0.25 mg
- Activity (Mus musculus [45]): 8.42 g
- Activity (Mus musculus [46]): 0.19 mg
- Activity (Mus musculus [47]): 4.42 g
- Activity (Mus musculus [48]): 0.17 mg
- Activity (Mus musculus [49]): 0.18 mg
- Activity (Mus musculus [50]): 0.24 mg
- Activity (Mus musculus [51]): 2.37 g
- Activity (Mus musculus [52]): 6.39 g
- Activity (Mus musculus [53]): 0.23 mg
- Activity (Mus musculus [54]): 41%
- Activity (Mus musculus [55]): 0.23 mg
